Source: the NIST ThermoML archive (doi:10.1021/je1005517)
± gives the expanded uncertainty stated by the source.

Assay: activity coefficient (dimensionless); of the first substance listed, at infinite dilution; xn = mol fraction of the nth substance listed
Details: Liquid, GC, x1 = 0

Row | SMILES | activity coefficient (338.15 K, 101 kPa) | activity coefficient (343.15 K, 101 kPa) | activity coefficient (348.15 K, 101 kPa) | activity coefficient (353.15 K, 101 kPa) | activity coefficient (333.15 K, 101 kPa) | activity coefficient (333.15 K, 101.3 kPa) | activity coefficient (338.15 K, 101.3 kPa) | activity coefficient (343.15 K, 101.3 kPa) | activity coefficient (348.15 K, 101.3 kPa) | activity coefficient (353.15 K, 101.3 kPa)
1 | CCCCCCCC [octane] + CCCCCCCCCCCCCCCCCCCCO | 0.187 ± 0.011 | 0.161 ± 0.0096 | 0.138 ± 0.0083 | 0.12 ± 0.0072 |  |  |  |  |  | 
2 | C=CCCCCC [1-heptene] + CCCCCCCCCCCCCCCCCCCCO | 0.124 ± 0.0074 | 0.118 ± 0.0071 | 0.113 ± 0.0068 | 0.108 ± 0.0065 |  |  |  |  |  | 
3 | CC(C)=O [acetone] + CCCCCCCCCCCCCCCCCCO | 0.0179 ± 0.0011 | 0.0174 ± 0.001 | 0.017 ± 0.001 | 0.0166 ± 0.001 | 0.0185 ± 0.0011 |  |  |  |  | 
4 | CCCCO [butan-1-ol] + CCCCCCCCCCCCCCCCCCCCO | 0.431 ± 0.026 | 0.387 ± 0.023 | 0.352 ± 0.021 | 0.316 ± 0.019 |  |  |  |  |  | 
5 | ClCCl [dichloromethane] + CCCCCCCCCCCCCCCCCCO |  |  |  |  |  | 0.0262 ± 0.0016 | 0.0233 ± 0.0014 | 0.0212 ± 0.0013 | 0.0194 ± 0.0012 | 0.0178 ± 0.0011
6 | ClC(Cl)(Cl)Cl [tetrachloromethane] + CCCCCCCCCCCCCCCCCCCCO | 0.0862 ± 0.0052 | 0.081 ± 0.0049 | 0.076 ± 0.0046 | 0.0714 ± 0.0043 |  |  |  |  |  | 
7 | CCO [ethanol] + CCCCCCCCCCCCCCCCCCCCO | 0.124 ± 0.0075 | 0.117 ± 0.007 | 0.106 ± 0.0063 | 0.095 ± 0.0057 |  |  |  |  |  | 
8 | Cc1ccccc1 [toluene] + CCCCCCCCCCCCCCCCCCO | 0.0355 ± 0.0021 | 0.0343 ± 0.0021 | 0.0331 ± 0.002 | 0.0318 ± 0.0019 | 0.0372 ± 0.0022 |  |  |  |  | 
9 | CO [methanol] + CCCCCCCCCCCCCCCCCCO | 0.0386 ± 0.0023 | 0.0357 ± 0.0021 | 0.033 ± 0.002 | 0.0306 ± 0.0018 | 0.0423 ± 0.0025 |  |  |  |  | 
10 | CCCCC [pentane] + CCCCCCCCCCCCCCCCCCCCO | 0.0954 ± 0.0057 | 0.0801 ± 0.0048 | 0.0668 ± 0.004 | 0.0564 ± 0.0034 |  |  |  |  |  | 
11 | ClC(Cl)Cl [trichloromethane] + CCCCCCCCCCCCCCCCCCO | 0.022 ± 0.0013 | 0.0214 ± 0.0013 | 0.0208 ± 0.0012 | 0.0202 ± 0.0012 | 0.0227 ± 0.0014 |  |  |  |  | 
12 | CCCCCl [1-chlorobutane] + CCCCCCCCCCCCCCCCCCCCO | 0.0991 ± 0.0059 | 0.0954 ± 0.0057 | 0.0919 ± 0.0055 | 0.0886 ± 0.0053 |  |  |  |  |  | 
13 | C=CCCC [1-pentene] + CCCCCCCCCCCCCCCCCCO |  |  |  |  |  | 0.0261 ± 0.0016 | 0.0245 ± 0.0015 | 0.0234 ± 0.0014 | 0.0222 ± 0.0013 | 0.0213 ± 0.0013
14 | C=CCCCCC [1-heptene] + CCCCCCCCCCCCCCCCCCO |  |  |  |  |  | 0.0431 ± 0.0026 | 0.0417 ± 0.0025 | 0.0407 ± 0.0024 | 0.0397 ± 0.0024 | 0.0388 ± 0.0023
15 | CCCCl [1-chloropropane] + CCCCCCCCCCCCCCCCCCCCO | 0.0779 ± 0.0047 | 0.0778 ± 0.0047 | 0.0778 ± 0.0047 | 0.0777 ± 0.0047 |  |  |  |  |  | 
16 | CCO [ethanol] + CCCCCCCCCCCCCCCCCCO |  |  |  |  |  | 0.0433 ± 0.0026 | 0.0396 ± 0.0024 | 0.0369 ± 0.0022 | 0.0343 ± 0.0021 | 0.032 ± 0.002
17 | ClCCl [dichloromethane] + CCCCCCCCCCCCCCCCCCCCO | 0.079 ± 0.0047 | 0.0642 ± 0.0039 | 0.0532 ± 0.0032 | 0.0435 ± 0.0026 |  |  |  |  |  | 
18 | CCCCOC(C)=O [butyl ethanoate] + CCCCCCCCCCCCCCCCCCO |  |  |  |  |  | 0.0526 ± 0.0032 | 0.0468 ± 0.0028 | 0.0428 ± 0.0026 | 0.0391 ± 0.0023 | 0.0358 ± 0.0021
19 | CCCCCl [1-chlorobutane] + CCCCCCCCCCCCCCCCCCO | 0.036 ± 0.0022 | 0.0338 ± 0.002 | 0.0321 ± 0.0019 | 0.03 ± 0.0018 | 0.0389 ± 0.0023 |  |  |  |  | 
20 | C1CCOC1 [tetrahydrofuran] + CCCCCCCCCCCCCCCCCCO | 0.0188 ± 0.0011 | 0.0177 ± 0.0011 | 0.0166 ± 0.001 | 0.0156 ± 0.0009 | 0.0204 ± 0.0012 |  |  |  |  | 
21 | CCOCC [diethyl ether] + CCCCCCCCCCCCCCCCCCCCO | 0.0652 ± 0.0039 | 0.0624 ± 0.0037 | 0.0598 ± 0.0036 | 0.0572 ± 0.0034 |  |  |  |  |  | 
22 | CC#N [acetonitrile] + CCCCCCCCCCCCCCCCCCCCO | 0.309 ± 0.019 | 0.265 ± 0.016 | 0.229 ± 0.014 | 0.197 ± 0.012 |  |  |  |  |  | 
